The record followed here is ChEMBL document CHEMBL1201862, “PubChem BioAssay data set” (2004).

What all share (assay): DTP human tumour cell line panel, 48 h
Assay [1] has as its system DU-145.
The test system of assay [2] is Malme-3M.
The test system of assay [3] is SW-620.
Assay [4] has as its system HOP-92.
Assay [5] concerns SN12C.
Assay [6] has as its system UO-31.
The subject of assay [7] is OVCAR-3.
The subject of assay [8] is UACC-62.
Assay [9] concerns OVCAR-4.
For assay [10], the system named is SNB-75.
Assay [11] has as its system HCT-15.
The subject of assay [12] is NCI-H522.
The test system of assay [13] is ACHN.
Assay [14] deals with 786-0.
The test system of assay [15] is MDA-MB-435.
For assay [16], the system named is NCI-H460.
Assay [17] concerns SK-MEL-5.
Assay [18] concerns HT-29.
Assay [19] concerns SK-MEL-2.
In assay [20] the test system is HL-60.

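Growth conditions: 96-well plates. Treatment: test compound, 48 hours, 5 concentrations. Analysis: linear interpolation between bracketing concentrations; unreached endpoints set to highest concentration. GI50: concentration for 50% inhibition of growth.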 The source made the active and inactive calls. Cut-off read from the data, not from the text of the source: active = GI50 up to about 1.1 µM and inactive = higher.

The GI50 is the concentration at which growth is held to half of that of the control. Regarding `CC(C)(C)OC(=O)Cn1ncn(NC(=O)Cc2ccccc2)c1=S`, the GI50 in assay [1], in [2], in assay [3], in assay [4], in [5] and in assay [6] was > 10 µM (inactive) throughout. Besides, the GI50 is > 10 µM (inactive) in assay [7]; > 10 µM (inactive) in [8]; > 10 µM (inactive) in assay [9]; > 10 µM (inactive) in assay [10]; more than 10 µM in assay [11]; > 10 µM (inactive) in [12]. Also, the GI50 in [13], in assay [14], in [15], in assay [16], in assay [17] and in assay [18] was > 10 µM (inactive) throughout.

In the case of `CC(C)CCC[C@@H](C)[C@H]1CC[C@H]2[C@@H]3CC=C4C[C@@H](OC(=O)c5cccc6c(=O)c7ccccc7[nH]c56)CC[C@]4(C)[C@H]3CC[C@]12C`, the GI50 in [2] is > 75 µM (inactive); in assay [19] it was > 75 µM (inactive); in assay [3], > 75 µM (inactive); in assay [4], > 75 µM (inactive); in [5], 1.92 µM (inactive); in assay [6] it was > 75 µM (inactive). Further, the GI50 was > 75 µM (inactive) in [7]; > 75 µM (inactive) in assay [8]; 3.5 µM (inactive) in assay [9]; > 75 µM (inactive) in [10]; more than 75 µM in assay [11]; > 75 µM (inactive) in assay [12]. For the same compound, the GI50 in assay [13], in [14], in [15], in assay [17] and in assay [18] was > 75 µM (inactive) in each case.

`N#Cc1c(-c2ccc(Cl)cc2)c(C#N)c(=O)n(NS(=O)(=O)c2ccccc2)c1-c1ccccc1`: the GI50 in assay [19], in [3], in assay [4], in assay [5], in assay [8] and in assay [9] was > 25 µM (inactive) each time. Moreover, the 50% growth inhibitory concentration (GI50) is more than 25 µM in assay [11]; > 25 µM (inactive) in assay [13]; > 25 µM (inactive) in assay [14]; > 25 µM (inactive) in assay [15]; > 25 µM (inactive) in assay [16]; > 25 µM (inactive) in assay [17]. In addition, the GI50 in [20] was > 25 µM (inactive).

For `COC(=O)c1cc2ccc(N)nc2[nH]c1=O`, the GI50 in assay [2], in assay [19], in assay [3], in assay [4], in assay [5] and in assay [6] was > 100 µM (inactive) each time. Further, the GI50 in [7] was > 100 µM (inactive); in assay [9], > 100 µM (inactive); in assay [10], > 100 µM (inactive); in [11], more than 100 µM; in assay [12], > 100 µM (inactive); in assay [13], > 100 µM (inactive). Further, the GI50 in assay [14], in [15], in [16] and in [17] was > 100 µM (inactive) each time.

On to `CC1(C)C(CC(=O)O)CCCC1CC(=O)O` (stereo not given), for which the GI50 in assay [1], in assay [19], in assay [3], in assay [5], in [6] and in assay [7] was > 100 µM (inactive) each time. For the same compound, the GI50 in assay [8] is > 100 µM (inactive); in [9] it was > 100 µM (inactive); in [11], more than 100 µM; in assay [13], > 100 µM (inactive); in assay [14] it was > 100 µM (inactive); in [15], > 100 µM (inactive). Further, the GI50 in assay [17] and in assay [18] was > 100 µM (inactive) each time.

In the case of `COc1cc(/C=C2/C[C@H]3[C@@H]4CC=C5C[C@@H](OC(C)=O)CC[C@]5(C)[C@H]4CC[C@]3(C)NC2=O)cc(OC)c1OC`, the GI50 in assay [1] is 20.8 µM (inactive); in assay [2], 25.6 µM (inactive); in [19], 18.7 µM (inactive); in assay [3] it was 54 µM (inactive); in assay [4], 24.6 µM (inactive); in assay [5], 29.6 µM (inactive). Moreover, the GI50 was 18.1 µM (inactive) in [6]; 31.3 µM (inactive) in assay [7]; 19.8 µM (inactive) in [8]; 17.4 µM (inactive) in [9]; 22.5 µM (inactive) in assay [10]; 32.7 µM in assay [11]. Moreover, the GI50 is 24.6 µM (inactive) in assay [12]; 19.1 µM (inactive) in assay [13]; 17.9 µM (inactive) in assay [14]; 36.3 µM (inactive) in assay [15]; 32.7 µM (inactive) in assay [16]; 22.9 µM (inactive) in assay [17]. The GI50 in [18] is 38.7 µM (inactive).

`CCOC(=O)C1(F)S(=O)(=O)OCCOS1(=O)=O`: the GI50 in assay [1], in assay [2], in [19], in assay [3], in assay [5] and in assay [6] was > 100 µM (inactive) in each case. The GI50 in assay [7] was > 100 µM (inactive); in [8], > 100 µM (inactive); in assay [9], > 100 µM (inactive); in assay [10], > 100 µM (inactive); in [11], more than 100 µM; in [12] it was > 100 µM (inactive). For the same compound, the GI50 in assay [13], in assay [14], in assay [15], in [17] and in assay [18] was > 100 µM (inactive) throughout.

For `O=C(O)[C@H](Cc1ccccc1)NCCN1CCC[C@H]1C(=O)O`, the GI50 in [1] was > 100 µM (inactive); in assay [2], 49.8 µM (inactive); in assay [19], > 100 µM (inactive); in assay [3] it was 80.4 µM (inactive); in assay [4], 1.91 µM (inactive); in assay [5], > 100 µM (inactive). Besides, the GI50 in assay [6] is 32.4 µM (inactive); in [7], > 100 µM (inactive); in assay [8], 70.8 µM (inactive); in [9], 3.74 µM (inactive); in assay [11], 22.2 µM; in [12] it was > 100 µM (inactive). Besides, the GI50 in assay [14] is > 100 µM (inactive); in assay [15] it was > 100 µM (inactive); in assay [16], 42.1 µM (inactive); in assay [17], > 100 µM (inactive); in assay [18], 26.2 µM (inactive).

For `CO[C@H]1/C=C/O[C@@]2(C)Oc3c(C)c(O)c4c(O)c(c(/C=N/N5CCN(C)CC5)c(O)c4c3C2=O)NC(=O)/C(C)=C\C=C\[C@H](C)[C@H](O)[C@@H](C)[C@@H](O)[C@@H](C)[C@H](OC(C)=O)[C@@H]1C` [RIFAMPIN], the GI50 in assay [1] was > 100 µM (inactive); in assay [2], 37.5 µM (inactive); in assay [19], > 100 µM (inactive); in [3] it was > 100 µM (inactive); in assay [5] it was > 100 µM (inactive); in assay [6], 68.4 µM (inactive). The GI50 is 24.8 µM (inactive) in assay [7]; > 100 µM (inactive) in assay [8]; > 100 µM (inactive) in assay [13]; > 100 µM (inactive) in [14]; > 100 µM (inactive) in [15]; 45.8 µM (inactive) in assay [16]. In addition, the GI50 in [17] was 61.4 µM (inactive); in assay [18], 60 µM (inactive).
